pEC50, pIC50: −log10 of the molar value.
Experiments:
[1] = molecular target: NS2B−NS3 interactions (NLuc-NS2B49−66 / GST-CLuc-NS3) (Dengue virus type 2, UniProt P29990); test: Split luciferase complementation; format: binding
[2] = molecular target: T1, NS2B−NS3 protease (His-tagged NS2B / DENV2 NS3-MBP fusion protein) (Dengue virus type 2, UniProt P29990); test: NS2B−NS3 protease inhibition assay with FRET substrate; format: biochemical
T1 sequence (P29990 1476-1653 limits assumed): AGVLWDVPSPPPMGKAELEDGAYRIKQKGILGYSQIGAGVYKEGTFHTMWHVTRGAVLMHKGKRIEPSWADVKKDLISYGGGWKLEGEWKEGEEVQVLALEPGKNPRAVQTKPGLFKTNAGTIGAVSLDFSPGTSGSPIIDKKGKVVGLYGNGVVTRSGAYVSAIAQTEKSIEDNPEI

ZIKV PRVABC59 = test: PFU viral plaque reduction assay in A549 cells; format: cell-based; details: Zika virus, A549, read-out: EC50 (anti-ZIKV)
[3] = tested on: 3D mini-forebrain organoid; test: Toxicity to 3D mini-forebrain organoid; format: cell-based, human; details: Fig. S2; organoids fell apart and lost clear boundary
[4] = cited from earlier work
[5] = IC50-SLC (NS2B–NS3 interaction), split luciferase complementation, n = 3

NS2B−NS3 interactions (NLuc-NS2B49−66 / GST-CLuc-NS3), sequence (P29990 1476-1660): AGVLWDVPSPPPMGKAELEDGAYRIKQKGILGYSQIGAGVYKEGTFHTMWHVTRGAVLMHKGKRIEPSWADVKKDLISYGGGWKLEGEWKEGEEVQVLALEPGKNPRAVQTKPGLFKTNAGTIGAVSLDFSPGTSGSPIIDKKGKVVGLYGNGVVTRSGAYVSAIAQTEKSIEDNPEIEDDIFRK

Compound | pIC50 ([1]; IC50-SLC) | pIC50 [1, 5] | pIC50 [2] | pEC50 (ZIKV PRVABC59) | toxicity to 3D organoids (morphology) [3] | cellular cytotoxicity [4]
O=C1OC2(c3ccccc31)c1ccc(O)c(Cl)c1Oc1c2ccc(O)c1Cl [JMX0892, 4′,5′-Dichloro-3′,6′-dihydroxy-3H-spiro[isobenzofuran-1,9′-xanthen]-3-one] | ~4.30 | 4.30 | < 4.22 | < 4.82 | – | –
O=C1OC2(c3ccccc31)c1ccc(O)c(Br)c1Oc1c2ccc(O)c1Br [JMX0893, 4′,5′-dibromo-3′,6′-dihydroxy-3H-spiro[isobenzofuran-1,9′-xanthen]-3-one] | – | 4.80 | < 4.22 | < 4.82 | – | –
O=C1OC2(c3cc(Cl)c(O)cc3Oc3cc(O)c(Cl)cc32)c2ccccc21 [JMX0897, 2′,7′-Dichloro-3′,6′-dihydroxy-3H-spiro[isobenzofuran-1,9′-xanthen]-3-one] | ~4.30 | 4.32 | 4.64 | < 4.82 | – | –
O=C1OC2(c3cc(I)c(O)c(I)c3Oc3c2cc(I)c(O)c3I)c2c(Cl)c(Cl)c(Cl)c(Cl)c21 [JMX0902, Sodium 4,5,6,7-tetrachloro-2′,4′,5′,7′-tetraiodo-3-oxo-3H-spiro[isobenzofuran-1,9′-xanthene]-3′,6′-bis(olate)] | – | 6.37 | 5.59 | 6.52 | – | –
O=C1OC2(c3ccccc31)c1ccc(O)c(I)c1Oc1c2ccc(O)c1I [JMX0903, Sodium 4′,5′-diiodo-3-oxo-3H-spiro[isobenzofuran-1,9′-xanthene]-3′,6′-bis(olate)] | – | 4.82 | 4.22 | < 4.82 | – | –
O=C1OC2(c3ccccc31)c1cc(Br)c(O)c(Br)c1Oc1c2cc(Br)c(O)c1Br [JMX0911, 2′,4′,5′,7′-tetrabromo-3′,6′-dihydroxy-3H-spiro[isobenzofuran-1,9′-xanthen]-3-one] | – | 5.47 | – | < 4.82 | – | –
O=C1OC2(c3ccc(O)cc3Oc3cc(O)ccc32)c2ccc(NC(=S)NCCS)cc21 [JMX0912, 1-(3′,6′-Dihydroxy-3-oxo-3H-spiro[isobenzofuran-1,9′-xanthen]-5-yl)-3-(2-mercaptoethyl)thiourea] | < 4.30 | < 4.00 | 4.06 | < 4.82 | – | –
O=C1OC2(c3ccc(O)cc3Oc3cc(O)ccc32)c2ccccc21 [JMX0915, 3′,6′-Dihydroxy-3H-spiro[isobenzofuran-1,9′-xanthen]-3-one] | < 4.30 | < 4.00 | < 4.00 | < 4.82 | – | –
O=C(O)c1ccc2c(c1)C(=O)OC21c2ccc(O)cc2Oc2cc(O)ccc21 [JMX0920, 3′,6′-Dihydroxy-3-oxo-3H-spiro[isobenzofuran-1,9′-xanthene]-5-carboxylic acid] | < 4.30 | 4.28 | < 4.00 | < 4.82 | – | –
Oc1cccc(-c2c3nc(c(-c4cccc(O)c4)c4ccc([nH]4)c(-c4cccc(O)c4)c4nc(c(-c5cccc(O)c5)c5ccc2[nH]5)CC4)C=C3)c1 [temoporfin] | – | – | – | – | significant toxicity | moderate cellular cytotoxicity

— publication PMC9279632 (Acta Pharmaceutica Sinica. B, 2021)
